Laboratory results reported in US10703765B2 (priority 2014, dated 2020).
Counter-ions that a name gives are not always drawn.

target: human σ1 receptor (Homo sapiens, UniProt Q99720); assay: biochemical; format: binding; parameters: μ and σ1 dual binding: key to the marks not given beside the values; conditions: not given
Sequence (Q99720 whole entry): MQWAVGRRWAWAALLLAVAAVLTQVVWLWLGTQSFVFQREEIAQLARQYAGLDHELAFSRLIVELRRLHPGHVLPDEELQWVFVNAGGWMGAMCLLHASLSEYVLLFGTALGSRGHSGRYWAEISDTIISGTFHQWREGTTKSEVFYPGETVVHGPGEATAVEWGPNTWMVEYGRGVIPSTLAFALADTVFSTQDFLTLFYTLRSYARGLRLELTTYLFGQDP

SMILES | Ki [nM] | μ and σ1 dual binding
CC1OC2(CCN(CCc3ccc(N)cc3)CC2)CN(c2ccccc2)C1=O (stereo not drawn) [Example 228, 9-(4-aminophenethyl)-2-methyl-4-phenyl-1-oxa-4,9-diazaspiro[5.5]undecan-3-one] | < 500 | –
CC1OC2(CCN(CCc3ccccc3)CC2)CN(c2ccccc2O)C1=O (stereo not drawn) [Example 296, 4-(2-hydroxyphenyl)-2-methyl-9-phenethyl-1-oxa-4,9-diazaspiro[5.5]undecan-3-one] | – | ++
CC(=O)Nc1cccc(N2CC3(CCN(CCc4ccccc4)CC3)OC(C)C2=O)c1 (stereo not drawn) [Example 242, N-(3-(2-methyl-3-oxo-9-phenethyl-1-oxa-4,9-diazaspiro[5.5]undecan-4-yl)phenyl)acetamide] | – | ++
C[C@H]1OC2(CCN(C[C@@H](O)c3ccccc3)CC2)CN(c2ccccc2)C1=O [Example 151b, (R)-9-((S)-2-hydroxy-2-phenylethyl)-2-methyl-4-phenyl-1-oxa-4,9-diazaspiro[5.5]undecan-3-one] | < 500 | –
CC1OC2(CCN(CCc3ccccc3)CC2)CN(Cc2nccn2C)C1=O.Cl (stereo not drawn) [Example 172, 2-methyl-4-((1-methyl-1H-imidazol-2-yl)methyl)-9-phenethyl-1-oxa-4,9-diazaspiro[5.5]undecan-3-one hydrochloride] | – | ++
CC1OC2(CCN(CCc3ncccc3F)CC2)CN(c2ccccc2)C1=O (stereo not drawn) [Example 96, 9-(2-(3-fluoropyridin-2-yl)ethyl)-2-methyl-4-phenyl-1-oxa-4,9-diazaspiro[5.5]undecan-3-one hydrochloride] | < 500 | –
COc1ccccc1CCN1CCC2(CC1)CN(c1ccccc1F)C(=O)C(C(C)C)O2 (stereo not drawn) [Example 137, 4-(2-fluorophenyl)-2-isopropyl-9-(2-methoxyphenethyl)-1-oxa-4,9-diazaspiro[5.5]undecan-3-one hydrochloride] | < 100 | –
CC(C)C1OC2(CCN(CCc3csc(N)n3)CC2)CN(c2ccccc2F)C1=O (stereo not drawn) [Example 306, 9-(2-(2-aminothiazol-4-yl)ethyl)-4-(2-fluorophenyl)-2-isopropyl-1-oxa-4,9-diazaspiro[5.5]undecan-3-one dihydrochloride] | – | ++

same assay, conditions: combined class from Ki-σ1 (human σ1 receptor, A1) and Ki-μ (human μ-opioid receptor, A2) radioligand binding

SMILES | μ and σ1 dual binding
O=C1COC2(CCN(CCc3ccccc3)CC2)CN1c1ccccc1O [Example 286, 4-(2-hydroxyphenyl)-9-phenethyl-1-oxa-4,9-diazaspiro[5.5]undecan-3-one] | ++

same assay, conditions: read-out: μ and σ1 dual binding

SMILES | Ki [nM]
CC1OC2(CCN(CCc3ccc(C(=O)N(C)C)cc3)CC2)CN(c2ccccc2)C1=O (stereo not drawn) [Example 273, N,N-dimethyl-4-(2-(2-methyl-3-oxo-4-phenyl-1-oxa-4,9-diazaspiro[5.5]undecan-9-yl)ethyl)benzamide hydrochloride] | > 500
CC1OC2(CCN(CCN3CCOCC3)CC2)CN(c2ccccc2)C1=O (stereo not drawn) [Example 65, 2-methyl-9-(2-morpholinoethyl)-4-phenyl-1-oxa-4,9-diazaspiro[5.5]undecan-3-one] | > 500
CC1OC2(CCN(CC3CC3)CC2)CN(c2ccccc2F)C1=O (stereo not drawn) [Example 82, 9-(cyclopropylmethyl)-4-(2-fluorophenyl)-2-methyl-1-oxa-4,9-diazaspiro[5.5]undecan-3-one hydrochloride] | > 500
COC(=O)CCN1CCC2(CC1)CN(c1ccccc1)C(=O)C1(CC1)O2 [Example 348, methyl 3-(13-oxo-12-phenyl-4-oxa-8,12-diazadispiro[2.1.5.3]tridecan-8-yl)propanoate] | > 500
CC1OC2(CCN(CCc3ccc(N)nc3)CC2)CN(c2ccccc2)C1=O (stereo not drawn) [Example 280, 9-(2-(6-aminopyridin-3-yl)ethyl)-2-methyl-4-phenyl-1-oxa-4,9-diazaspiro[5.5]undecan-3-one] | > 500
Oc1ccccc1CCN1CCC2(CC1)CN(Cc1ccccc1)CCO2 [Example 299, 2-(2-(4-benzyl-1-oxa-4,9-diazaspiro[5.5]undecan-9-yl)ethyl)phenol] | < 100
CC1OC2(CCN(CCc3ccccc3)CC2)CN(c2nccs2)C1=O (stereo not drawn) [Example 209, 2-methyl-9-phenethyl-4-(thiazol-2-yl)-1-oxa-4,9-diazaspiro[5.5]undecan-3-one hydrochloride] | < 500
O=C1COC2(CCN(CC(O)c3ccccc3)CC2)CN1Cc1ccc(C(F)(F)F)cn1 (stereo not drawn) [Example 278, 9-(2-hydroxy-2-phenylethyl)-4-((5-(trifluoromethyl)pyridin-2-yl)methyl)-1-oxa-4,9-diazaspiro[5.5]undecan-3-one] | < 500
O=C1COC2(CCN(CCc3ccccc3O)CC2)CN1c1ccccc1 [Example 289, 9-(2-hydroxyphenethyl)-4-phenyl-1-oxa-4,9-diazaspiro[5.5]undecan-3-one] | < 500
CC(=O)Nc1cccc(CCN2CCC3(CC2)CN(c2ccccc2)C(=O)[C@@H](C)O3)c1 [Example 244b, (R)-N-(3-(2-(2-methyl-3-oxo-4-phenyl-1-oxa-4,9-diazaspiro[5.5]undecan-9-yl)ethyl)phenyl)acetamide hydrochloride] | < 100
CN(C)C(=O)CCN1CC2(CCN(CCc3ccccc3)CC2)OC2(CC2)C1=O [Example 182, N,N-dimethyl-3-[13-oxo-8-phenethyl-4-oxa-8,12-diazadispiro[2.1.5.3]tridecan-12-yl]propanamide hydrochloride] | > 500
O=C1N(c2cnccc2C(F)(F)F)CC2(CCN(CCc3cc(F)ccc3F)CC2)OC12CC2 [Example 342, 8-(2,5-difluorophenethyl)-12-(4-(trifluoromethyl)pyridin-3-yl)-4-oxa-8,12-diazadispiro[2.1.5.3]tridecan-13-one] | < 500
O=C1COC2(CCN(CCc3cccc(O)c3)CC2)CN1c1ccccc1 [Example 291, 9-(3-hydroxyphenethyl)-4-phenyl-1-oxa-4,9-diazaspiro[5.5]undecan-3-one] | < 500
CC1OC2(CCN(CCc3cccc(C#N)c3)CC2)CN(c2ccccc2)C1=O (stereo not drawn) [Example 75, 3-(2-(2-methyl-3-oxo-4-phenyl-1-oxa-4,9-diazaspiro[5.5]undecan-9-yl)ethyl)benzonitrile hydrochloride] | < 100
O=C1N(CCO)CC2(CCN(CCc3ccccc3)CC2)OC12CC2 [Example 310, 12-(2-hydroxyethyl)-8-phenethyl-4-oxa-8,12-diazadispiro[2.1.5.3]tridecan-13-one hydrochloride] | > 500
CC1CN(Cc2nccn2C)CC2(CCN(CCc3ccccc3)CC2)O1 (stereo not drawn) [Example 327, 2-methyl-4-((1-methyl-1H-imidazol-2-yl)methyl)-9-phenethyl-1-oxa-4,9-diazaspiro[5.5]undecane dihydrochloride] | < 500
CC1OC2(CCN(CCc3ccccc3F)CC2)CN(c2cnccc2C(F)(F)F)C1=O (stereo not drawn) [Example 126, 9-(2-fluorophenethyl)-2-methyl-4-(4-(trifluoromethyl)pyridin-3-yl)-1-oxa-4,9-diazaspiro[5.5]undecan-3-one hydrochloride] | < 100
CC1OC2(CCN(CC(=O)N3CCOCC3)CC2)CN(c2ccccc2)C1=O (stereo not drawn) [Example 78, 2-methyl-9-(2-morpholino-2-oxoethyl)-4-phenyl-1-oxa-4,9-diazaspiro[5.5]undecan-3-one hydrochloride] | > 500
COc1ccccc1CCN1CCC2(CC1)CN(Cc1ccccn1)C(=O)CO2 [Example 79, 9-(2-methoxyphenethyl)-4-(pyridin-2-ylmethyl)-1-oxa-4,9-diazaspiro[5.5]undecan-3-one] | < 500
CCC1OC2(CCN(CCc3ccccc3)CC2)CN(c2ccccc2)C1=O (stereo not drawn) [Example 13, 2-ethyl-9-phenethyl-4-phenyl-1-oxa-4,9-diazaspiro[5.5]undecan-3-one] | < 100
CC(C)(C)OC(=O)Nc1nc(CCN2CCC3(CC2)CN(c2ccccc2)C(=O)C2(CC2)O3)cs1 [Example 118, tert-butyl (4-(2-(13-oxo-12-phenyl-4-oxa-8,12-diazadispiro[2.1.5.3]tridecan-8-yl)ethyl)thiazol-2-yl)carbamate] | > 500
CC1OC2(CCN(CCc3ccc(C(F)(F)F)cn3)CC2)CN(c2ccccc2)C1=O (stereo not drawn) [Example 34, 2-methyl-4-phenyl-9-(2-(5-(trifluoromethyl)pyridin-2-yl)ethyl)-1-oxa-4,9-diazaspiro[5.5]undecan-3-one hydrochloride] | > 500
O=C1N(c2ncccc2C(F)(F)F)CC2(CCN(CCc3cc(F)ccc3F)CC2)OC12CC2 [Example 343, 8-(2,5-difluorophenethyl)-12-(3-(trifluoromethyl)pyridin-2-yl)-4-oxa-8,12-diazadispiro[2.1.5.3]tridecan-13-one] | < 500
C[C@@H]1OC2(CCN(CCc3ccccc3F)CC2)CN(c2ncccc2C(F)(F)F)C1=O [Example 222b, (S)-9-(2-fluorophenethyl)-2-methyl-4-(3-(trifluoromethyl)pyridin-2-yl)-1-oxa-4,9-diazaspiro[5.5]undecan-3-one] | > 500
CC1OC2(CCN(CCc3ccccc3)CC2)CN(c2cccnc2)C1=O (stereo not drawn) [Example 194, 2-methyl-9-phenethyl-4-(pyridin-3-yl)-1-oxa-4,9-diazaspiro[5.5]undecan-3-one hydrochloride] | < 500
CC1OC2(CCN(CCc3ccccn3)CC2)CN(c2ccccc2)C1=O (stereo not drawn) [Example 58, 2-methyl-4-phenyl-9-(2-(pyridin-2-yl)ethyl)-1-oxa-4,9-diazaspiro[5.5]undecan-3-one] | < 100
CC1OC2(CCN(CCc3ccccc3)CC2)CN(Cc2ccccc2)C1=O (stereo not drawn) [Example 152, 4-benzyl-2-methyl-9-phenethyl-1-oxa-4,9-diazaspiro[5.5]undecan-3-one hydrochloride] | < 100
CC1OC2(CCN(CCc3cccc(N)c3)CC2)CN(c2ccccc2)C1=O (stereo not drawn) [Example 226, 9-(3-aminophenethyl)-2-methyl-4-phenyl-1-oxa-4,9-diazaspiro[5.5]undecan-3-one] | < 100
CC1OC2(CCN(CCOc3cccnc3)CC2)CN(c2ccccc2)C1=O (stereo not drawn) [Example 145, 2-methyl-4-phenyl-9-(2-(pyridin-3-yloxy)ethyl)-1-oxa-4,9-diazaspiro[5.5]undecan-3-one hydrochloride] | > 500
O=C1N(c2ccccc2)CC2(CCN(CCc3ccccn3)CC2)OC12CC2 [Example 90, 12-phenyl-8-[2-(pyridin-2-yl)ethyl]-4-oxa-8,12-diazaspiro[2.1.5.3]tridecan-13-one] | < 100
